Experimental data as given in paper PMC12305496, “Bilosomal Encapsulation of Binuclear Phosphino Ru(II)–Cu(II) Compounds Enhances Their Selectivity and Activity toward Lung and Prostate Cancers” (Journal of Medicinal Chemistry, 2025).

What follows are compounds tested on A549 cells (assay: MTT cytotoxicity assay, A549). Conditions: 24 h, Table 2 (bilosome comparison).
Assay type: cell-based, human
Protocol: (§4) Primary screening of the antiproliferative activity of the heteronuclear Ru­(II)–Cu­(II) complexes was performed by the commonly used MTT assay on four human cancer cell lines: MCF-7 (breast), A549 (lung adenocarcinoma), DU145 (prostate), and PANC-1 (pancreatic). In addition, normal human embryonic kidney (HEK293T) and human keratinocyte (HaCaT) cell lines were used as controls to assess the toxicity of these complexes. The IC50 values (the concentration that causes 50% inhibition of cell proliferation) examined for compounds are compared to those obtained for clinically used cisplatin (CDDP) under the same experimental conditions.
(§5) The MCF7 cell line (human breast adenocarcinoma; morphology: epithelial-like, ATCC: HTB-22), A549 cell line (human lung adenocarcinoma, morphology: epithelial, ATCC: CCL-185), PANC-1 (human pancreatic/duct carcinoma, morphology: epithelial, ATCC: CRL-1469), and HaCaT (human keratinocyte, ATCC PCS-200-011) were cultured in DMEM (Corning), supplemented with 10% fetal bovine serum (FBS) and with 1% streptomycin/penicillin. The DU145 cell line (human prostate carcinoma) and HEK293T and HEK293 cell line (human embryonic kidney) were cultured in minimum essential medium (MEM, Corning) with 10% FBS. Cultures were incubated at 37 °C under a humidified atmosphere containing 5% CO2. Cells were passaged using a solution containing 0.05% trypsin and 0.5 mM EDTA. All media and other ingredients were purchased from ALAB­(Poland) or Thermo Fisher Scientific (USA).
(§6) Since most of the studied compounds are insoluble in aqueous media, they needed to be predissolved in DMSO for biological evaluation. DMSO was used in cell cultures at a concentration below 0.1% (v/v) to minimize its cytotoxicity and changes in gene expression. Cytotoxicity of the studied compounds was assessed using an MTT assay performed according to the protocols described previously. […] After that time, solutions of compounds were washed out, cells were then washed three times with PBS (1X), and a fresh medium was applied. Each compound concentration was tested in five replicates and repeated at least three times. Determined values of IC50 (concentration of a drug required to inhibit the growth of 50% of the cells) are given as mean ± SD. […] IC50 values were determined, after 72 h, from the plots of cell viability in the presence of various concentrations of each compound by matching the dose–response curves.

Compound | IC50 [µM]
[NH2][Pt]([NH2])([Cl])[Cl] [CDDP, cisplatin, reference compound] | 57 ± 1.3

Same assay, conditions: 24 h treatment, DMSO predissolved

Compound | IC50 [µM]
[NH2][Pt]([NH2])([Cl])[Cl] [CDDP, cisplatin, reference compound] | 57 ± 1.3
[Ru(η^6-p-cymene)Cl2Pcfx-Cu(phen)](NO3) [RuPCpCu] | 44.4 ± 0.78
[Ru(η^6-p-cymene)Cl2Plfx-Cu(phen)](NO3) [RuPLmCu] | 42.6 ± 0.68
[Ru(η^6-p-cymene)Cl2Pnfx-Cu(phen)](NO3) [RuPNrCu] | 48.1 ± 0.06
[Ru(η^6-p-cymene)Cl2Psfx-Cu(phen)] [RuPSfCu] | 41.1 ± 0.7

Same assay, conditions: 72 h (24 h + 48 h regeneration)

Compound | IC50 [µM]
[NH2][Pt]([NH2])([Cl])[Cl] [CDDP, cisplatin, reference compound] | 71.7 ± 3.7
[Ru(η^6-p-cymene)Cl2Pcfx-Cu(phen)](NO3) [RuPCpCu] | 12.6 ± 0.83
[Ru(η^6-p-cymene)Cl2Plfx-Cu(phen)](NO3) [RuPLmCu] | 24.3 ± 0.91
[Ru(η^6-p-cymene)Cl2Pnfx-Cu(phen)](NO3) [RuPNrCu] | 18.8 ± 3.4
[Ru(η^6-p-cymene)Cl2Psfx-Cu(phen)] [RuPSfCu] | 25.4 ± 1.66

What follows are compounds tested on MCF7 cells (assay: MTT cytotoxicity assay, MCF7). Conditions: 24 h treatment.
Assay type: cell-based, human
Text: The IC50 values (the concentration that causes 50% inhibition of cell proliferation) examined for compounds are compared to those obtained for clinically used cisplatin (CDDP) under the same experimental conditions.
The MCF7 cell line (human breast adenocarcinoma; morphology: epithelial-like, ATCC: HTB-22), A549 cell line (human lung adenocarcinoma, morphology: epithelial, ATCC: CCL-185), PANC-1 (human pancreatic/duct carcinoma, morphology: epithelial, ATCC: CRL-1469), and HaCaT (human keratinocyte, ATCC PCS-200-011) were cultured in DMEM (Corning), supplemented with 10% fetal bovine serum (FBS) and with 1% streptomycin/penicillin. […] Cultures were incubated at 37 °C under a humidified atmosphere containing 5% CO2. Cells were passaged using a solution containing 0.05% trypsin and 0.5 mM EDTA.
as §6

Compound | IC50 [µM]
[NH2][Pt]([NH2])([Cl])[Cl] [CDDP, cisplatin, reference compound] | 51.9 ± 4.61
[Ru(η^6-p-cymene)Cl2Pcfx-Cu(phen)](NO3) [RuPCpCu] | 25 ± 0.91
[Ru(η^6-p-cymene)Cl2Plfx-Cu(phen)](NO3) [RuPLmCu] | 26.7 ± 2.82
[Ru(η^6-p-cymene)Cl2Pnfx-Cu(phen)](NO3) [RuPNrCu] | 24.7 ± 1.95
[Ru(η^6-p-cymene)Cl2Psfx-Cu(phen)] [RuPSfCu] | 17.7 ± 0.93

Same assay, conditions: 72 h (24 h + 48 h regeneration)

Compound | IC50 [µM]
[NH2][Pt]([NH2])([Cl])[Cl] [CDDP, cisplatin, reference compound] | 17.7 ± 8.6

The compounds below were run on DU145 cells (assay: MTT cytotoxicity assay, DU145). Conditions: 24 h, Table 2 (bilosome comparison).
Assay type: cell-based, human
Protocol: as §4, §5, §6

Compound | IC50 [µM]
[NH2][Pt]([NH2])([Cl])[Cl] [CDDP, cisplatin, reference compound] | 68.3 ± 1.3
[Ru(η^6-p-cymene)Cl2Pcfx-Cu(phen)](NO3) [RuPCpCu] | 31 ± 1.05

Same assay, conditions: 24 h treatment, DMSO predissolved

Compound | IC50 [µM]
[NH2][Pt]([NH2])([Cl])[Cl] [CDDP, cisplatin, reference compound] | 68.3 ± 1.35
[Ru(η^6-p-cymene)Cl2Pcfx-Cu(phen)](NO3) [RuPCpCu] | 31 ± 1.05
[Ru(η^6-p-cymene)Cl2Plfx-Cu(phen)](NO3) [RuPLmCu] | 18.9 ± 1.21
[Ru(η^6-p-cymene)Cl2Pnfx-Cu(phen)](NO3) [RuPNrCu] | 14.5 ± 1.04
[Ru(η^6-p-cymene)Cl2Psfx-Cu(phen)] [RuPSfCu] | 16 ± 0.05

Same assay, conditions: 72 h (24 h + 48 h regeneration)

Compound | IC50 [µM]
[NH2][Pt]([NH2])([Cl])[Cl] [CDDP, cisplatin, reference compound] | 65.5 ± 3.61
[Ru(η^6-p-cymene)Cl2Pcfx-Cu(phen)](NO3) [RuPCpCu] | 15 ± 0.44
[Ru(η^6-p-cymene)Cl2Plfx-Cu(phen)](NO3) [RuPLmCu] | 12.7 ± 0.92
[Ru(η^6-p-cymene)Cl2Pnfx-Cu(phen)](NO3) [RuPNrCu] | 14.9 ± 0.23
[Ru(η^6-p-cymene)Cl2Psfx-Cu(phen)] [RuPSfCu] | 13.5 ± 0.35

What follows are compounds tested on PANC-1 cells (assay: MTT cytotoxicity assay, PANC-1). Conditions: 24 h treatment.
Assay type: cell-based, human
Protocol: as §4, §5, §6

Compound | IC50 [µM]
[NH2][Pt]([NH2])([Cl])[Cl] [CDDP, cisplatin, reference compound] | 95.6 ± 2.61
[Ru(η^6-p-cymene)Cl2Pcfx-Cu(phen)](NO3) [RuPCpCu] | 25.9 ± 0.01
[Ru(η^6-p-cymene)Cl2Plfx-Cu(phen)](NO3) [RuPLmCu] | 28.3 ± 0.71
[Ru(η^6-p-cymene)Cl2Pnfx-Cu(phen)](NO3) [RuPNrCu] | 29.5 ± 0.81
[Ru(η^6-p-cymene)Cl2Psfx-Cu(phen)] [RuPSfCu] | 27.2 ± 0.86

Same assay, conditions: 72 h (24 h + 48 h regeneration)

Compound | IC50 [µM]
[NH2][Pt]([NH2])([Cl])[Cl] [CDDP, cisplatin, reference compound] | 76.6 ± 1.68
[Ru(η^6-p-cymene)Cl2Pcfx-Cu(phen)](NO3) [RuPCpCu] | 21.7 ± 1.02
[Ru(η^6-p-cymene)Cl2Plfx-Cu(phen)](NO3) [RuPLmCu] | 22.7 ± 1.03
[Ru(η^6-p-cymene)Cl2Pnfx-Cu(phen)](NO3) [RuPNrCu] | 23.1 ± 1.09
[Ru(η^6-p-cymene)Cl2Psfx-Cu(phen)] [RuPSfCu] | 22.1 ± 0.68

Each compound was assayed on HEK293T cells (assay: MTT cytotoxicity assay, HEK293T). Conditions: 24 h, Table 2 (bilosome comparison).
Assay type: cell-based, human
Protocol: as §4, §5, §6

Compound | IC50 [µM]
[NH2][Pt]([NH2])([Cl])[Cl] [CDDP, cisplatin, reference compound] | 21 ± 1.6
[Ru(η^6-p-cymene)Cl2Pcfx-Cu(phen)](NO3) [RuPCpCu] | 644 ± 13.1

Same assay, conditions: 24 h treatment

Compound | IC50 [µM]
[NH2][Pt]([NH2])([Cl])[Cl] [CDDP, cisplatin, reference compound] | 21 ± 1.81
[Ru(η^6-p-cymene)Cl2Pcfx-Cu(phen)](NO3) [RuPCpCu] | 644 ± 13.1
[Ru(η^6-p-cymene)Cl2Plfx-Cu(phen)](NO3) [RuPLmCu] | 634 ± 9.1
[Ru(η^6-p-cymene)Cl2Pnfx-Cu(phen)](NO3) [RuPNrCu] | 677 ± 12.7
[Ru(η^6-p-cymene)Cl2Psfx-Cu(phen)] [RuPSfCu] | 546 ± 11.2

Same assay, conditions: 72 h (24 h + 48 h regeneration)

Compound | IC50 [µM]
[NH2][Pt]([NH2])([Cl])[Cl] [CDDP, cisplatin, reference compound] | 10.3 ± 2.15
[Ru(η^6-p-cymene)Cl2Pcfx-Cu(phen)](NO3) [RuPCpCu] | 796 ± 8.9
[Ru(η^6-p-cymene)Cl2Plfx-Cu(phen)](NO3) [RuPLmCu] | 782 ± 14.2
[Ru(η^6-p-cymene)Cl2Pnfx-Cu(phen)](NO3) [RuPNrCu] | 798 ± 14.8
[Ru(η^6-p-cymene)Cl2Psfx-Cu(phen)] [RuPSfCu] | 695 ± 14.2

Each compound was assayed on HaCaT cells (assay: MTT cytotoxicity assay, HaCaT). Conditions: 24 h, Table 2 (bilosome comparison).
Assay type: cell-based, human
Protocol: as §4, §5, §6

Compound | IC50 [µM]
[NH2][Pt]([NH2])([Cl])[Cl] [CDDP, cisplatin, reference compound] | 43.3 ± 1.1
[Ru(η^6-p-cymene)Cl2Pcfx-Cu(phen)](NO3) [RuPCpCu] | 935 ± 9.3

Same assay, conditions: 24 h treatment

Compound | IC50 [µM]
[NH2][Pt]([NH2])([Cl])[Cl] [CDDP, cisplatin, reference compound] | 43.3 ± 1.1
[Ru(η^6-p-cymene)Cl2Pcfx-Cu(phen)](NO3) [RuPCpCu] | 935 ± 9.3
[Ru(η^6-p-cymene)Cl2Plfx-Cu(phen)](NO3) [RuPLmCu] | 936 ± 10.1
[Ru(η^6-p-cymene)Cl2Pnfx-Cu(phen)](NO3) [RuPNrCu] | > 1000
[Ru(η^6-p-cymene)Cl2Psfx-Cu(phen)] [RuPSfCu] | > 1000

Same assay, conditions: 72 h (24 h + 48 h regeneration)

Compound | IC50 [µM]
[NH2][Pt]([NH2])([Cl])[Cl] [CDDP, cisplatin, reference compound] | 17.3 ± 3.1
[Ru(η^6-p-cymene)Cl2Pcfx-Cu(phen)](NO3) [RuPCpCu] | 834 ± 11.9
[Ru(η^6-p-cymene)Cl2Plfx-Cu(phen)](NO3) [RuPLmCu] | 833 ± 12.2
[Ru(η^6-p-cymene)Cl2Pnfx-Cu(phen)](NO3) [RuPNrCu] | 873 ± 18.8
[Ru(η^6-p-cymene)Cl2Psfx-Cu(phen)] [RuPSfCu] | 741 ± 13.2

The compounds below were run on A549 cells (assay: PrestoBlue HS cell viability assay, A549). Conditions: 24 h, dissolved in 0.9% NaCl.
Assay type: cell-based, human
Protocol: (§1) Primary screening of the antiproliferative activity of the heteronuclear Ru(II)–Cu(II) complexes was performed by the commonly used MTT assay on four human cancer cell lines: MCF-7 (breast), A549 (lung adenocarcinoma), DU145 (prostate), and PANC-1 (pancreatic). In addition, normal human embryonic kidney (HEK293T) and human keratinocyte (HaCaT) cell lines were used as controls to assess the toxicity of these complexes. […] To verify whether the use of DMSO as a solvent influenced the cytotoxic activity of CDDP, we performed additional experiments (Figure S29) with CDDP (Sigma-Aldrich) dissolved in 0.9% NaCl as per the manufacturer’s recommendation. […]
(§2) Additionally, the viability of A549 and DU145 cell lines, as well as the control cell line HEK293, upon CDDP in 0.9% NaCl, was assessed using the resazurin-based PrestoBlue HS Cell Viability assay, according to the manufacturer’s protocol. […] Results were recorded using fluorescence (excitation 560 nm, emission 590 nm) and absorbance (570 nm), with fluorescence values calculated further using GraphPad Prism software, v. […]
(§3) Figure S29. […] Cells were incubated with varying concentrations of CDDP for 24 h and cell viability was measured by fluorescence intensity (excitation 560 nm, emission 590 nm). […]

Compound | IC50 [µM]
[NH2][Pt]([NH2])([Cl])[Cl] [CDDP, cisplatin, reference compound] | 51.9

What follows are compounds tested on DU145 cells (assay: PrestoBlue HS cell viability assay, DU145). Conditions: 24 h, dissolved in 0.9% NaCl.
Assay type: cell-based, human
Protocol: as §1, §2, §3

Compound | IC50 [µM]
[NH2][Pt]([NH2])([Cl])[Cl] [CDDP, cisplatin, reference compound] | 101

What follows are compounds tested on HEK293 cells (assay: PrestoBlue HS cell viability assay, HEK293). Conditions: 24 h, dissolved in 0.9% NaCl.
Assay type: cell-based, human
Protocol: as §1, §2, §3

Compound | IC50 [µM]
[NH2][Pt]([NH2])([Cl])[Cl] [CDDP, cisplatin, reference compound] | 87

The compounds below were run on BAX and BCL-2 genes' expression (assay: RT-qPCR of BAX and BCL-2 gene expression in A549 cells). Conditions: mRNA, control = 1.
Assay type: cell-based, human
Protocol: In this study, using Reverse transcription (RT)-quantitative real-time PCR (RT-qPCR), we analyzed whether the expression ratio of Bax to Bcl-2 mRNA correlates with apoptosis or the proliferative activity of cancer cells. −
For this purpose, total RNA was isolated using the Total RNA Mini Plus kit (A&A Biotechnology, Gdansk, Poland) following the manufacturer’s instructions. A total of 1 μg of RNA was subjected to RT into complementary DNA (cDNA) using oligo­(dT)­18 and the TranScriba Kit (A&A Biotechnology, Gdansk, Poland). The qRT-PCR experiments were performed with the Sensitive RT HS-PCR Mix (A&A Biotechnology, Gdansk, Poland) on a real-time PCR thermal cycler from Bio-Rad. The TaqMan primers used in this study were obtained from Thermo Fisher Scientific/Invitrogen, specifically Bax (Hs00180269_m1), Bcl-2 (Hs04986394_s1), and GAPDH (4352932E). The relative transcript quantification was carried out using the 2^–ΔΔCt method with GAPDH as the reference gene.

Compound | Bax/Bcl-2 ratio
[NH2][Pt]([NH2])([Cl])[Cl] [CDDP, cisplatin, reference compound] | 4.56
[Ru(η^6-p-cymene)Cl2Pcfx-Cu(phen)](NO3) [RuPCpCu] | 6.4

Each compound was assayed on A549 cells (assay: Cell cycle analysis by flow cytometry). Conditions: A549, 5 μM, 24 h.
Assay type: cell-based, human
Protocol: Before treatment, cells were synchronized, and the compounds were applied at various concentrations.
The A549 and DU145 cells (3 × 10^5/well) were seeded in 12-well plates and treated with various concentrations of the examined complexes and CDDP for 24 h. Synchronization of A549 and DU145 cell cultures was performed by serum starvation. Serum starvation is widely used for synchronizing donor cells by arresting them in the G 0/G 1 phase of the cell cycle. Cell cultures were seeded and incubated in growth medium with 20% FBS overnight to synchronize the cell cultures. Then, the cultures were rinsed with PBS (1×) and changed to a serum-free medium. After serum starvation for 18 h, the cells were passaged and released into the cell cycle by the addition of the serum. Then cells were treated with the examined compounds and CDDP for 24 h. For FACS analysis, cell samples were harvested with trypsinization and stained with propidium iodide (20 μg/mL). Cell cycle phase distributions were analyzed by flow cytometry (BD Bioscience). Experiments were reaped at least three times.

Compound | effect on cell cycle
[Ru(η^6-p-cymene)Cl2Pcfx-Cu(phen)](NO3) [RuPCpCu] | induced cell cycle arrest in the S phase
[Ru(η^6-p-cymene)Cl2Psfx-Cu(phen)] [RuPSfCu] | induced cell cycle arrest in the S phase
